Source: patent publication US20050215646A1, “Methods for treating multiple sclerosis and pharmaceutical compositions therefor” (Renovis, Inc., priority 2004, published 2005)

Tests used:
CXCR4 = CXCR4 (Homo sapiens, UniProt P61073); experiment: Migration of RBL-2H3 cells expressing CXCR4; type: cell-based; set-up: cDNA fragments encompassing chemokine receptor coding regions; expressed in transfected cells; settings: RBL-2H3 cells expressing CXCR4, 2 hours
Description: (§1) RBL-2H3 cells were obtained from American Type Culture Collection (CRL-2256) and cultured in Minimum essential medium (MEM) with 10% heat-inactivated fetal bovine serum, 100 μg/ml penicillin/streptomycin. cDNA fragments encompassing chemokine receptor coding regions were obtained from cDNAs synthesized from HL-60 cells and/or human peripheral blood mononuclear cells by the polymerase chain reaction. Expression constructs of chemokine receptors were generated by cloning PCR fragments into expression vector pEF6/V5-TOPO (K9610-20, Invitrogen). Plasmid containing full-length human CXCR5 cDNA (human CXCR50TN00, pcDNA3.1+) was purchased from UMR cDNA Resource Center (Rolla, Mo.). Plasmid containing full-length human CCR7 cDNA (human CCR0700000, pcDNA3.1+) was purchased from UMR cDNA Resource Center (Rolla, Mo.). Transient transfections were carried out with Fugene 6 transfection reagent (1814443, Roche Applied Science) according to the manufacturer's instructions. […]
(§2) Following the migration assays, cells that had migrated to the bottom wells were quantitated using CyQuant reagents according to the manufacturer's instructions (Molecular Probes, Eugene, Oreg.). […] The fluorescence intensity (excitation wavelength at 485 nm and emission wavelength at 530 nm) was measured using Safire Spectrometer (Tecan; Research Triangle Park, N.C.).

CCR7 = target: T1, CCR7 (Homo sapiens, UniProt P32248); experiment: Migration of RBL-2H3 cells expressing CCR7; type: cell-based; settings: RBL-2H3 cells expressing CCR7, 2 hours
T1 construct: Plasmid containing full-length human CCR7 cDNA; host or cells: RBL-2H3 (ATCC CRL-2256), transient transfection
T1 sequence (P32248 25-378): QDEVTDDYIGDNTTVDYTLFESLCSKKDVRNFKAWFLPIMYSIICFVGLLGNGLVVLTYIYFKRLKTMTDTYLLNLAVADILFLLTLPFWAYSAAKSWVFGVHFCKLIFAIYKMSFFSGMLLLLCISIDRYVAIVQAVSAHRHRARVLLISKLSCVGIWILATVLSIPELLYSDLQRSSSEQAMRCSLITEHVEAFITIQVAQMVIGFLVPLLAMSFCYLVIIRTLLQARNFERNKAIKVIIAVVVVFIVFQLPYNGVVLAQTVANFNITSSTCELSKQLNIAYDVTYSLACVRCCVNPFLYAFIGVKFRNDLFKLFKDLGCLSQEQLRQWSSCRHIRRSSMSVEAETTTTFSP
Description: as §1, §2

rat EAE model = experiment: Lewis rat model of experimental autoimmune encephalomyelitis (EAE); type: in vivo; settings: 10 mg/kg/day oral gavage
Description: 7- to 10-week female Lewis rats (The Jackson Laboratory, Bar Harbor, Me.) were used since they are susceptible to EAE, and since MS occurs at a 2:1 ratio between females and males respectively. Rats were immunized either at the base of the tail (or in one hind footpad) with myelin antigen myelin basic peptide, MBP 85-99. Peptide antigens were mixed with complete Freund's adjuvant including killed mycobacterium tuberculosis at a doses of 4 mg/ml. 200 micrograms of antigen mixed with the 0.1 ml emulsion of adjuvant were used. The myelin antigens were dissolved in phosphate buffered saline.
Nine rats were used in each of the following groups: EAE control, vehicle control, compound 15 (prevention), compound 15 (pro-treatment), phenyl-N-butyl-nitrone (prevention) and phenyl-N-butyl-nitrone (pro-treatment). For the treatment model, fifteen rats were used in each of three groups: EAE control, vehicle control, compound 15 (treatment). Drugs were administered via oral gavage feeding. Rats were dosed daily after the first dose until recovery from acute disease (typically 20 days after EAE induction). Compound 15 was dosed at 10 mg/kg/day and phenyl-N-butyl-nitrone was dosed at 100 mg/kg/day. In the prevention model, first dose of the drugs was administered 7 days prior to EAE induction. In the pro-treatment model, first dose was administered 4 days after EAE induction. In the treatment model, first dose was administered at the peak of the disease after animals were randomized into equal groups.
All rats were followed daily for clinical signs and weighed every four days. Longer water tubes were used to allow mice to drink when they develop paralysis, and chow was put on the floor of the cage to facilitate nourishment if the rats were paralyzed. Rats were scored as follows: 0, healthy; 1, tail weakness or paralysis; 2, paraparesis (incomplete paralysis of one or two hind limbs or plegia of one hind limb); 3, paraplegia extending to the thorax; 4, forelimb weakness, paralysis with hind limb paraparesis or paraplegia; 5, moribund or dead animal.

Sequence of CXCR4 (P61073 whole entry, the tested form may be a part): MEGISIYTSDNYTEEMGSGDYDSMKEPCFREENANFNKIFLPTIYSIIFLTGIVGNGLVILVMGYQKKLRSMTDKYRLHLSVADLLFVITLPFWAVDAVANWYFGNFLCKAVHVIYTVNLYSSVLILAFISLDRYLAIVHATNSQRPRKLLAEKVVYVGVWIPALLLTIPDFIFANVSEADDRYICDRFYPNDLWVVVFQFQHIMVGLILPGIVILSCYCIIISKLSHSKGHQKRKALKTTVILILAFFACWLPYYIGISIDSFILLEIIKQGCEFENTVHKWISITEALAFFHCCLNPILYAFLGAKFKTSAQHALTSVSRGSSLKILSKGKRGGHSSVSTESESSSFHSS

induction of cell migration (CXCR4)	induction of cell migration (CCR7)	Structure (SMILES)	disease free rats, treatment model (rat EAE model; first dose at the peak of EAE, compared to controls, FIG. 14)	clinical scores, pro-treatment model (rat EAE model; rats, first dose 4 days after EAE induction, compared to control or PBN, FIG. 13)	change of clinical scores on day 15, pro-treatment model (rat EAE model; rats, first dose 4 days after EAE induction, day 15)	clinical scores, prevention model (rat EAE model; rats, first dose 7 days prior to EAE induction, compared to controls and to PBN (100 mg/kg/day), FIG. 12)
induced migration	induced migration	CCC(C)c1cc(/C=[N+](\[O-])C(C)(C)C)cc(C(C)CC)c1O (stereo not drawn) [Compound 17]				
		COCOc1c(C(C)(C)C)cc(/C=[N+](\[O-])C(C)(C)C)cc1C(C)(C)C [Compound 15, α-(4-methoxymethoxy-3,5-di-tert-butyl-phenyl)-N-tert-butylnitrone]	significantly more rats treated with compound 15 were disease free	significantly better clinical scores	improved dramatically	significantly better clinical scores
